From PubChem BioAssay AID1918996 (Molecular Pharmacology Branch, DTP, NCI, 2023)

Tested on: 349418-098-R-PDC complex spheroid growth
Assay: Anticancer human tumor 349418-098-R-PDC patient-derived lung adenocarcinoma cell line growth inhibition [AhR]
Settings: for IC50: curve of first compound; for viability, T/C: stronger effect = lower value
Summary of the method: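 Complex tumor spheroids co-cultured with HUVEC and human MSC stroma; AhR antagonists tested in combination with standard-of-care and investigational agents. Top concentration at or near clinical Cmax (else 10 microM), half-log dilutions; growth expressed as percent test/control.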
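Note: spheroids exposed to agents for seven days before luminescence viability read.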
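Throughout, for viability, T/C: spheroids also contain HUVEC endothelial cells and human MSC stroma.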

## CC(C)c1c(-c2ccccc2)nc2c(C#N)c[nH]n2c1=O + Cc1cncc(-c2nc(NCCc3c[nH]c4ccccc34)c3ncn(C(C)C)c3n2)c1
Second compound 0.1 µM
  IC50: > 10 µM
Second compound 0.316 µM
  IC50: > 10 µM
Second compound 1 µM
  IC50: > 10 µM
Second compound 3.16 µM
  IC50: < 0.0316 µM
Second compound 10 µM
  IC50: < 0.0316 µM
Second compound 0.1 µM, first compound 0.0316 µM
  viability, T/C: 102%
Second compound 0.1 µM, first compound 0.1 µM
  viability, T/C: 94.6%
Second compound 0.1 µM, first compound 0.316 µM
  viability, T/C: 97.9%
Second compound 0.1 µM, first compound 1 µM
  viability, T/C: 97.2%
Second compound 0.1 µM, first compound 3.16 µM
  viability, T/C: 97%
Second compound 0.1 µM, first compound 10 µM
  viability, T/C: 101%
Second compound 0.316 µM, first compound 0.0316 µM
  viability, T/C: 96.8%
Second compound 0.316 µM, first compound 0.1 µM
  viability, T/C: 82.4%
Second compound 0.316 µM, first compound 0.316 µM
  viability, T/C: 105%
Second compound 0.316 µM, first compound 1 µM
  viability, T/C: 93.2%
Second compound 0.316 µM, first compound 3.16 µM
  viability, T/C: 83.3%
Second compound 0.316 µM, first compound 10 µM
  viability, T/C: 95.2%
Second compound 1 µM, first compound 0.0316 µM
  viability, T/C: 94.1%
Second compound 1 µM, first compound 0.1 µM
  viability, T/C: 87%
Second compound 1 µM, first compound 0.316 µM
  viability, T/C: 83.6%
Second compound 1 µM, first compound 1 µM
  viability, T/C: 85.9%
Second compound 1 µM, first compound 3.16 µM
  viability, T/C: 78.6%
Second compound 1 µM, first compound 10 µM
  viability, T/C: 83.7%
Second compound 3.16 µM, first compound 0.0316 µM
  viability, T/C: 15.8%
Second compound 3.16 µM, first compound 0.1 µM
  viability, T/C: 16.5%
Second compound 3.16 µM, first compound 0.316 µM
  viability, T/C: 17.4%
Second compound 3.16 µM, first compound 1 µM
  viability, T/C: 12.2%
Second compound 3.16 µM, first compound 3.16 µM
  viability, T/C: 11.3%
Second compound 3.16 µM, first compound 10 µM
  viability, T/C: 12.6%
Second compound 10 µM, first compound 0.0316 µM
  viability, T/C: 0.96%
Second compound 10 µM, first compound 0.1 µM
  viability, T/C: 1.33%
Second compound 10 µM, first compound 0.316 µM
  viability, T/C: 1.19%
Second compound 10 µM, first compound 1 µM
  viability, T/C: 0.58%
Second compound 10 µM, first compound 3.16 µM
  viability, T/C: 0.81%
Second compound 10 µM, first compound 10 µM
  viability, T/C: 1.09%
